The text below walks through data of patent US20250026778A1 (TIUMBIO CO., LTD., priority 2021, published 2025).

The structures appear in SMILES notation.

For the first assay, the target named is T1, his-galectin-3 (Homo sapiens, UniProt P17931).
T1 construct: purchased Abcam
T1 sequence (P17931 whole entry): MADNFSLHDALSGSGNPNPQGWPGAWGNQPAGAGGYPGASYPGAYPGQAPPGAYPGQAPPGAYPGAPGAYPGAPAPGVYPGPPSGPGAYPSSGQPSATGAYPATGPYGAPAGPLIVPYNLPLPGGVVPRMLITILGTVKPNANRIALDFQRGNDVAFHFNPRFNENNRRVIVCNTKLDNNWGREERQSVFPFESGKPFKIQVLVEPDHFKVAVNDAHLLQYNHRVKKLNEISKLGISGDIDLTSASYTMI
The experiment in a line: TR-FRET assay (in vitro galectin-3 binding inhibitory activity test). The settings on record: Table 2; compound at 20 μM; 60 nM his-galectin-3, 15 nM biotin-ASF; read-out: % Inhibitory activity (at 20 μM). Summed up:
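Compound is premixed with his-galectin-3 (60 nM final), then biotin-ASF (15 nM), Tb anti-His antibody (2 nM) and streptavidin-d2 (20 nM) are added. After at least 3.5 hours at RT in HEPES/NaCl buffer with Tween 20 and BSA, TR-FRET is read at 615/665 nm. DMSO serves as the uninhibited control, ASF omission as background.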
A general note: TR-FRET usually uses a lanthanide donor and a delayed reading to cut background.
Regarding `O=C(N[C@@H]1CCO[C@]12O[C@H](CO)[C@H](O)[C@H](n1cc(-c3cc(F)c(F)c(F)c3)nn1)[C@H]2O)c1cccc2c1CCC2` [Compound A162, N-((4R,5S,7R,8R,9S,10R)-8,10-dihydroxy-7-(hydroxymethyl)-9-(4-(3,4,5-trifluorophenyl)-1H-1,2,3-triazol-1-yl)-1,6-dioxaspiro[4.5]decan-4-yl)-2,3-dihydro-1H-indene-4-carboxamide], the inhibition at 20 µM fell in the range of 50 to 75%.

`O=C(N[C@@H]1CCO[C@]12O[C@H](CO)[C@H](O)[C@H](n1cc(-c3cc(F)c(F)c(F)c3)nn1)[C@H]2O)C1CCc2ccccc21` (stereo partly drawn) [Compound A163, N-((4R,5S,7R,8R,9S,10R)-8,10-dihydroxy-7-(hydroxymethyl)-9-(4-(3,4,5-trifluorophenyl)-1H-1,2,3-triazol-1-yl)-1,6-dioxaspiro[4.5]decan-4-yl)-2,3-dihydro-1H-indene-1-carboxamide]: the inhibition at 20 µM lay in the range of 50 to 75%.

Turning to `O=C(N[C@@H]1CCO[C@]12O[C@H](CO)[C@H](O)[C@H](n1cc(-c3cc(F)c(F)c(F)c3)nn1)[C@H]2O)c1cccc(-c2ccccc2F)c1` [Compound A164, N-((4R,5S,7R,8R,9S,10R)-8,10-dihydroxy-7-(hydroxymethyl)-9-(4-(3,4,5-trifluorophenyl)-1H-1,2,3-triazol-1-yl)-1,6-dioxaspiro[4.5]decan-4-yl)-2′-fluoro-[1,1′-biphenyl]-3-carboxamide], the inhibition at 20 µM was above 75%.

As for `O=C(N[C@@H]1CCO[C@]12O[C@H](CO)[C@H](O)[C@H](n1cc(-c3cc(F)c(F)c(F)c3)nn1)[C@H]2O)c1cccc(-c2cccc(F)c2)c1` [Compound A165, N-((4R,5S,7R,8R,9S,10R)-8,10-dihydroxy-7-(hydroxymethyl)-9-(4-(3,4,5-trifluorophenyl)-1H-1,2,3-triazol-1-yl)-1,6-dioxaspiro[4.5]decan-4-yl)-3′-fluoro-[1,1′-biphenyl]-3-carboxamide], the inhibition at 20 µM lay in the range of 50 to 75%.

For `O=C(N[C@@H]1CCO[C@]12O[C@H](CO)[C@H](O)[C@H](n1cc(-c3cc(F)c(F)c(F)c3)nn1)[C@H]2O)c1cccc(-c2cccc(Cl)c2)c1` [Compound A166, 3′-chloro-N-((4R,5S,7R,8R,9S,10R)-8,10-dihydroxy-7-(hydroxymethyl)-9-(4-(3,4,5-trifluorophenyl)-1H-1,2,3-triazol-1-yl)-1,6-dioxaspiro[4.5]decan-4-yl)-[1.1′-biphenyl]-3-carboxamide], the inhibition at 20 µM is 50 to 75%.

Consider `O=C(N[C@@H]1CCO[C@]12O[C@H](CO)[C@H](O)[C@H](n1cc(-c3cc(F)c(F)c(F)c3)nn1)[C@H]2O)c1cccc2c(Cl)cccc12` [Compound A169, 5-chloro-N-((4R,5S,7R,8R,9S,10R)-8,10-dihydroxy-7-(hydroxymethyl)-9-(4-(3,4,5-trifluorophenyl)-1H-1,2,3-triazol-1-yl)-1,6-dioxaspiro[4.5]decan-4-yl)-1-naphthamide], for which the inhibition at 20 µM is above 75%.

For `O=C(N[C@@H]1CCO[C@]12O[C@H](CO)[C@H](O)[C@H](n1cc(-c3cc(F)c(F)c(F)c3)nn1)[C@H]2O)c1ccc(F)c2ccccc12` [Compound A170, N-((4R,5S,7R,8R,9S,10R)-8,10-dihydroxy-7-(hydroxymethyl)-9-(4-(3,4,5-trifluorophenyl)-1H-1,2,3-triazol-1-yl)-1,6-dioxaspiro[4.5]decan-4-yl)-4-difluoro-1-naphthamide], the inhibition at 20 µM was above 75%.

With `O=C(N[C@@H]1CCO[C@]12O[C@H](CO)[C@H](O)[C@H](n1cc(-c3cc(F)c(F)c(F)c3)nn1)[C@H]2O)c1ccc(Cl)c2ccccc12` [Compound A172, 4-chloro-N-((4R,5S,7R,8R,9S,10R)-8,10-dihydroxy-7-(hydroxymethyl)-9-(4-(3,4,5-trifluorophenyl)-1H-1,2,3-triazol-1-yl)-1,6-dioxaspiro[4.5]decan-4-yl)-1-naphthamide], the inhibition at 20 µM was above 75%.

On to `O=C(N[C@@H]1CCO[C@]12O[C@H](CO)[C@H](O)[C@H](n1cc(-c3cc(F)c(F)c(F)c3)nn1)[C@H]2O)c1ccc2cc(Cl)ccc2c1` [Compound A173, 6-chloro-N-((4R,5S,7R,8R,9S,10R)-8,10-dihydroxy-7-(hydroxymethyl)-9-(4-(3,4,5-trifluorophenyl)-1H-1,2,3-triazol-1-yl)-1,6-dioxaspiro[4.5]decan-4-yl)-2-naphthamide], for which the inhibition at 20 µM is 25 to 50%.

Turning to `O=C(N[C@@H]1CCO[C@]12O[C@H](CO)[C@H](O)[C@H](n1cc(-c3cc(F)c(F)c(F)c3)nn1)[C@H]2O)c1ccc(Br)c2ccccc12` [Compound A176, 4-bromo-N-((4R,5S,7R,8R,9S,10R)-8,10-dihydroxy-7-(hydroxymethyl)-9-(4-(3,4,5-trifluorophenyl)-1H-1,2,3-triazol-1-yl)-1,6-dioxaspiro[4.5]decan-4-yl)-1-naphthamide], the inhibition at 20 µM was above 75%.

On to `O=C(N[C@@H]1CCO[C@]12O[C@H](CO)[C@H](O)[C@H](n1cc(-c3cc(F)c(F)c(F)c3)nn1)[C@H]2O)c1csc2ccc(Cl)cc12` [Compound A177, 5-chloro-N-((4R,5S,7R,8R,9S,10R)-8,10-dihydroxy-7-(hydroxymethyl)-9-(4-(3,4,5-trifluorophenyl)-1H-1,2,3-triazol-1-yl)-1,6-dioxaspiro[4.5]decan-4-yl)benzo[b]thiophene-3-carboxamide], for which the inhibition at 20 µM is above 75%.

With `O=C(N[C@@H]1CCO[C@]12O[C@H](CO)[C@H](O)[C@H](n1cc(-c3cc(F)c(F)c(F)c3)nn1)[C@H]2O)c1cc(Br)cc2ccccc12` [Compound A178, 3-bromo-N-((4R,5S,7R,8R,9S,10R)-8,10-dihydroxy-7-(hydroxymethyl)-9-(4-(3,4,5-trifluorophenyl)-1H-1,2,3-triazol-1-yl)-1,6-dioxaspiro[4.5]decan-4-yl)-1-naphthamide], the inhibition at 20 µM is above 75%.

Regarding `O=C(N[C@@H]1CCO[C@]12O[C@H](CO)[C@H](O)[C@H](n1cc(-c3cc(F)c(F)c(F)c3)nn1)[C@H]2O)c1cccc(-c2ccccc2Br)c1` [Compound A179, 2′-bromo-N-((4R,5S,7R,8R,9S,10R)-8,10-dihydroxy-7-(hydroxymethyl)-9-(4-(3,4,5-trifluorophenyl)-1H-1,2,3-triazol-1-yl)-1,6-dioxaspiro[4.5]decan-4-yl)-[1,1′-biphenyl]-3-carboxamide], the inhibition at 20 µM lay in the range of 50 to 75%.

For the compound `O=C(N[C@@H]1CCO[C@]12O[C@H](CO)[C@H](O)[C@H](n1cc(-c3cc(F)c(F)c(F)c3)nn1)[C@H]2O)c1coc2ccc(Br)cc12` [Compound A180, 5-bromo-N-((4R,5S,7R,8R,9S,10R)-8,10-dihydroxy-7-(hydroxymethyl)-9-(4-(3,4,5-trifluorophenyl)-1H-1,2,3-triazol-1-yl)-1,6-dioxaspiro[4.5]decan-4-yl)benzofuran-3-carboxamide], the inhibition at 20 µM was above 75%.

Turning to `O=C(N[C@@H]1CCO[C@]12O[C@H](CO)[C@H](O)[C@H](n1cc(-c3cc(F)c(F)c(F)c3)nn1)[C@H]2O)c1sc2ccccc2c1Br` [Compound A181, 3-bromo-N-((4R,5S,7R,8R,9S,10R)-8,10-dihydroxy-7-(hydroxymethyl)-9-(4-(3,4,5-trifluorophenyl)-1H-1,2,3-triazol-1-yl)-1,6-dioxaspiro[4.5]decan-4-yl)benzo[b]thiophene-2-carboxamide], the inhibition at 20 µM is above 75%.

For `O=C(N[C@@H]1CCO[C@]12O[C@H](CO)[C@H](O)[C@H](n1cc(-c3cc(F)c(F)c(F)c3)nn1)[C@H]2O)c1nsc2ccccc12` [Compound A182, N-((4R,5S,7R,8R,9S,10R)-8,10-dihydroxy-7-(hydroxymethyl)-9-(4-(3,4,5-trifluorophenyl)-1H-1,2,3-triazol-1-yl)-1,6-dioxaspiro[4.5]decan-4-yl)benzo[d]isothiazole-3-carboxamide], the inhibition at 20 µM lay within 50 to 75%.

For `O=C(Cc1cccc(Oc2ccccc2)c1)N[C@@H]1CCO[C@]12O[C@H](CO)[C@H](O)[C@H](n1cc(-c3cc(F)c(F)c(F)c3)nn1)[C@H]2O` [Compound A183, N-((4R,5S,7R,8R,9S,10R)-8,10-dihydroxy-7-(hydroxymethyl)-9-(4-(3,4,5-trifluorophenyl)-1H-1,2,3-triazol-1-yl)-1,6-dioxaspiro[4.5]decan-4-yl)-2-(3-phenoxyphenyl)acetamide], the inhibition at 20 µM is below 25%.

As to `O=C(c1cccc2ccccc12)N1CCC[C@]2(C1)O[C@H](CO)[C@H](O)[C@H](n1cc(-c3cc(F)c(F)c(F)c3)nn1)[C@H]2O` [Compound A185, ((2R,3R,4S,5R,6R)-3,5-dihydroxy-2-(hydroxymethyl)-4-(4-(3,4,5-trifluorophenyl)-1H-1,2,3-triazol-1-yl)-1-oxa-8-azaspiro[5.5]undecan-8-yl)(naphthalen-1-yl)methanone], the inhibition at 20 µM is below 25%.

The assay is the same for the next values; noted with them: Table 3, found values; compound at 20 μM; 60 nM his-galectin-3, 15 nM biotin-ASF; read-out: % Inhibitory activity (at 20 μM).
As to `O=C(N[C@@H]1CCO[C@]12O[C@H](CO)[C@H](O)[C@H](n1cc(-c3cc(F)c(F)c(F)c3)nn1)[C@H]2O)c1cccc2c1CCC2` [Compound A162, N-((4R,5S,7R,8R,9S,10R)-8,10-dihydroxy-7-(hydroxymethyl)-9-(4-(3,4,5-trifluorophenyl)-1H-1,2,3-triazol-1-yl)-1,6-dioxaspiro[4.5]decan-4-yl)-2,3-dihydro-1H-indene-4-carboxamide], the inhibition at 20 µM turned out to be 69.9%.

As to `O=C(N[C@@H]1CCO[C@]12O[C@H](CO)[C@H](O)[C@H](n1cc(-c3cc(F)c(F)c(F)c3)nn1)[C@H]2O)c1ccc(F)c2ccccc12` [Compound A170, N-((4R,5S,7R,8R,9S,10R)-8,10-dihydroxy-7-(hydroxymethyl)-9-(4-(3,4,5-trifluorophenyl)-1H-1,2,3-triazol-1-yl)-1,6-dioxaspiro[4.5]decan-4-yl)-4-difluoro-1-naphthamide], the inhibition at 20 µM was found to be 85.3%.

On to `O=C(N[C@@H]1CCO[C@]12O[C@H](CO)[C@H](O)[C@H](n1cc(-c3cc(F)c(F)c(F)c3)nn1)[C@H]2O)c1nsc2ccccc12` [Compound A182, N-((4R,5S,7R,8R,9S,10R)-8,10-dihydroxy-7-(hydroxymethyl)-9-(4-(3,4,5-trifluorophenyl)-1H-1,2,3-triazol-1-yl)-1,6-dioxaspiro[4.5]decan-4-yl)benzo[d]isothiazole-3-carboxamide], for which the inhibition at 20 µM was found to be 73%.

The same assay, now with this note: read-out: % Inhibitory activity (at 20 μM), Table 2; compound at 20 μM; 60 nM his-galectin-3, 15 nM biotin-ASF.
In the case of `O=C(N[C@@H]1CCO[C@]12O[C@H](CO)[C@H](O)[C@H](n1cc(-c3cc(F)c(F)c(F)c3)nn1)[C@H]2O)c1ccccc1Oc1ccccc1` [Compound A171, N-((4R,5S,7R,8R,9S,10R)-8,10-dihydroxy-7-(hydroxymethyl)-9-(4-(3,4,5-trifluorophenyl)-1H-1,2,3-triazol-1-yl)-1,6-dioxaspiro[4.5]decan-4-yl)-2-phenoxybenzamide], the inhibition at 20 µM is 25 to 50%.

With `O=C(Cc1ccccc1)N1CCC[C@]2(C1)O[C@H](CO)[C@H](O)[C@H](n1cc(-c3cc(F)c(F)c(F)c3)nn1)[C@H]2O` [Compound A184, 1-((2R,3R,4S,5R,6R)-3,5-dihydroxy-2-(hydroxymethyl)-4-(4-(3,4,5-trifluorophenyl)-1H-1,2,3-triazol-1-yl)-1-oxa-8-azaspiro[5.5]undecan-8-yl)-2-phenylethanone], the inhibition at 20 µM is below 25%.
